From patent US20250270648A1, “MOLECULAR SIGNATURE FOR ASSESSING THE RESPONSIVENESS OF CANCER TO MITOCHONDRIA-TARGETED ANTIOXIDANTS” (UNIVERSITÉ CATHOLIQUE DE LOUVAIN, priority 2021, published 2025)

Assays:
MDA-MB-231 cells [1] = experiment: Western blotting (AMPK, EMT proteins); type: cell-based, human; conditions: 48 h
Experimental: (§1) For western blotting (WB), whole-protein extracts from MDA-MB-231, SkBr3 and MDA-MB-436 cells were prepared using RIPA buffer (50 mM Tris pH 7.4, 150 mM NaCl, 1% Triton-X-100, 0.05% sodium deoxycholate, 1 mM EDTA, 0.1% SDS, protease inhibitor cocktail and PhosSTOP Phosphatase Inhibitor Cocktail (Roche®)), centrifuged at 10,000×g for 10 min, and quantified using the Bio-Rad® Protein Assay. Proteins (50 μg for MDA-MB-231 and 100 μg for SkBr3 and MDA-MB-436 cells) were loaded into each lane of a 10-12% polyacrylamide gel in the presence of SDS, and were allowed to separate at 120 V for 90 min. The transfer of proteins onto nitrocellulose membranes was performed using an iBlot 2 Dry Blotting System (Thermo Fisher Scientific®) with the 7 min P0 program. Membranes were then blocked using 5% (w/v) powdered milk for 1 h, and incubated overnight at 4° C. with a primary antibody (Table 4).
(§2) β-actin served as a loading control. Immunodetection was performed at room temperature for 1 h using as secondary antibodies a horseradish peroxidase-conjugated goat anti-rabbit (Jackson®, Cat #111-035-003) and goat anti-mouse (Jackson®, Cat #115-035-003) in PBS-Tween containing 5% (w/v) milk or BSA. Detection was performed with ECL reagent (Amersham®, Cat #RPN2209), and protein bands were visualized and captured using ECL imager 600 (Amersham®). They were analyzed using the Image J software (Java).

SkBr3 cells [2] = experiment: Western blotting (AMPK, EMT proteins); type: cell-based, human; conditions: 48 h
Experimental: as §1, §2

MDA-MB-231 cells [3] = experiment: Glucose consumption and lactate production, enzymatic assays on CMA600; type: cell-based, human; conditions: 48 h
Experimental: (§3) Glucose and lactate concentrations were measured in cell supernatants collected after 48 h of culture ±MitoQ, using specific enzymatic assays on a CMA600 analyzer (Aurora Borealis®), as previously described in Sonveaux et al. (J Clin Invest; 2008; 118, 3930-3942). All data were normalized by total protein content (Bio-Rad® Protein Assay).

SkBr3 cells [4] = experiment: as above; type: cell-based, human; conditions: indicated doses of MitoQ, 48 h
Experimental: as §3

MDA-MB-231 cancer cells = experiment: Cell morphology, H&E; type: cell-based, human; conditions: MitoQ 100 to 500 nM, 48 h
Experimental: (§4) To visualize cell morphology, MDA-MB-231, SkBr3 and MDA-MB-436 cells were seeded in 24-well plates and treated ±MitoQ for 48 h, fixed in 100% methanol for 10 min stained with hematoxylin and eosin (H&E) for 10 min each, washed with water and dried. Pictures were acquired on an Axiovert 40 CFL microscope (Zeiss®) equipped with a MRC camera (Zeiss®).

SkBr3 cancer cells = experiment: Cell morphology, H&E; type: cell-based, human; conditions: MitoQ 100 to 500 nM, 48 h
Experimental: as §4

[5] = test system: MDA-MB-231 human triple-negative breast cancer; experiment: Spontaneous metastasis and recurrence, orthotopic MDA-MB-231 model; type: in vivo, mouse; conditions: MitoQ 20 mg/kg daily oral
Experimental: For spontaneous metastasis assays using human breast cancer cells, MDA-MB-231, SkBr3 or MDA-MB-436 cells were prepared in medium containing 10% growth factor-reduced Matrigel (Corning®, cat #734-11-01). Five weeks-old female Rj:NMRI-Foxnlnu/nu mice (Janvier) were injected with 10^6 cancer cells in 100 μL of solution in the left second mammary fat pad. After tumor take (72 h), mice were daily treated ±20 mg/Kg MitoQ by oral gavage. Tumor size was measured once per week with an electronic caliper. Four weeks after treatment initiation, primary tumors were surgically removed and processed for RT-qPCR. Tumor recurrence was monitored until recurred tumors in the vehicle group reached about […], i.e. 24 days after surgery. At this time point, mice were sacrificed and their lungs collected and fixed in PFA 4% for immunocytochemistry.
Collected lungs were processed for immunohistochemistry as previously shown. They were stained for Cytokeratin 19 (CK19) using a primary rabbit recombinant anti-CK19 antibody (Abcam®, cat #ab76539) and a secondary Envision anti-rabbit antibody coupled to HRP (Dako®, cat #K4003), and counter-stained with H&E. Images of whole lung slides were acquired on a SCN400 Slide Scanner (Leica®) and analyzed with the QuPath Software (0.1.2). Quantification was performed according to Chang and Erler (Adv Exp Med Biol, 2016; 899, 245-251), and the number of lung metastases was proportional to the positive areas of CK19 staining.

4T1 cells = experiment: Migration towards 0.5% serum, chemotaxis chamber; type: cell-based, mouse
Experimental: Previous to migration and invasion assays, cells were pretreated with the indicated amounts of drugs for 16 h, and left to recover for 6 h in full culture medium. Migration assays were performed in a NeuroProbe® standard 48-well chemotaxis chamber according to manufacturer's instructions. Briefly, the bottom chamber was filled with DMEM containing 0.5% serum as a chemo-attractant. Fifty thousand cells were seeded in the upper chamber in the same medium but without serum ±MitoQ where indicated, and allowed to migrate overnight through an 8-μm pore-size polycarbonate membrane. A similar stimulation protocol was used for invasion assays, with the difference of using Matrigel-coated transwells (Corning®). With MCF7 cells, membranes were previously incubated for 30 min with a solution of Vitronectin 10 μg/ml (Sigma-Aldrich®, #SRP3186). Migrated/invaded cells were fixed and stained with 100 μl of a 0.23% crystal violet solution (Sigma-Aldrich®, #C0775) for 10 min before counting on a SpectraMax™ i3 spectrophotometer equipped with a MiniMax imaging cytometer, using the SoftMax Pro software. Data were normalized to vehicle-treated cells (control).

COC1=C(OC)C(=O)C(CCCCCCCCCC[P+](c2ccccc2)(c2ccccc2)c2ccccc2)=C(C)C1=O [MitoQ]
5′ AMP-activated protein kinase (AMPK), P-T172-AMPK/total AMPK (MDA-MB-231 cells [1]; MitoQ 100 nM): activation | SNAIL, ZEB1, Twist1 and E-cadherin protein expression (MDA-MB-231 cells [1]; MitoQ 500 nM): decreased | AMPK activation (SkBr3 cells [2]; MitoQ 100 nM): did not significantly activate | SNAIL protein expression (SkBr3 cells [2]; MitoQ 500 nM): decreased | glycolytic rate (glucose consumption, lactate production) (MDA-MB-231 cells [3]; MitoQ 100 nM): increasing | glycolytic compensation with increasing dose (MDA-MB-231 cells [3]; indicated doses of MitoQ): saturated | glycolytic compensation with increasing dose (SkBr3 cells [4]): saturated | Morphological changes (MDA-MB-231 cancer cells): not obvious | Morphological changes (SkBr3 cancer cells): not obvious | primary tumor growth ([5]; P=0.3150): not significantly affected | recurrence-free survival ([5]; after surgery): significantly improved | mice with no metastasis ([5]; day +56, 9.5% in the control group): 75.0% | metastatic dissemination (lungs) ([5]; sacrifice day +56): highly significantly prevented | animals in which primary tumors relapsed after surgery ([5]; surgery day +32, 100% in the control group): 25% | DXR-stimulated cell migration (4T1 cells; 0.1 μg/mL DXR + 100 nM MitoQ): inhibited | breast cancer cell migration in the presence of cisplatin (4T1 cells; indicated doses of cisplatin + 100 nM MitoQ): repressed
